Results reported in patent US10485797B2, “Treatment of pemphigus” (Principia Biopharma Inc., priority 2014, dated 2019).
Like-named read-outs stand apart in the source and are kept apart here.

Assays:
BTK = molecular target: T1, BTK (Canis lupus familiaris, UniProt A0A8I3P3Z9); assay: BTK occupancy in blood of the treated dog; format: in vivo; details: 30 kg Doberman dog, oral 500 mg daily; blood taken 24 hours after the first dose; read-out: level of BTK occupancy 24 hours after each dose
T1 construct: from tissue; host or cells: blood of the treated Doberman dog
T1 sequence (A0A8I3P3Z9 1-664): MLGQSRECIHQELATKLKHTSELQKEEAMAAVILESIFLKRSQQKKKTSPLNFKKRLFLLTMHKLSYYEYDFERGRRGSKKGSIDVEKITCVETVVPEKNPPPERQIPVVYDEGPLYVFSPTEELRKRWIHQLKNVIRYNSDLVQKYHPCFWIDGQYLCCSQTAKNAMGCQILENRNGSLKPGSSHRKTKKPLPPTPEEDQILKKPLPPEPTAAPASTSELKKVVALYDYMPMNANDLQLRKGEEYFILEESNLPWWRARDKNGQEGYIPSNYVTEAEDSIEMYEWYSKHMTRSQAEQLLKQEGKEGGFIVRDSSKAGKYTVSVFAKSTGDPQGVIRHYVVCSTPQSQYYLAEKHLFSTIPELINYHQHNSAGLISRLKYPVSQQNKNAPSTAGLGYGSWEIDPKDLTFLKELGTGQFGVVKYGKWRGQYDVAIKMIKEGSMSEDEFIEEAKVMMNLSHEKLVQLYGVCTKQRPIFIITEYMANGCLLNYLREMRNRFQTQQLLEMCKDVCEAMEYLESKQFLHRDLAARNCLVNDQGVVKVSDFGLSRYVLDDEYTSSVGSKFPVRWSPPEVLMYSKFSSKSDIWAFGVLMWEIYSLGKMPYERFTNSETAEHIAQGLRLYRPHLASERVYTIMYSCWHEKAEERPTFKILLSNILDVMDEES

pemphigus folliaceus = assay: Dog Pemphigus Foliaceus Study; format: in vivo; details: for overall efficacy and safety in treatment of PF: single agent
Protocol: A 30 kg Doberman dog with a characteristic first presentation of pemphigus folliaceus on the nose and paws was administered an oral dose of 500 mg daily of the BTK inhibitor (R,E)-2-(3-(4-amino-3-(2-fluoro-4-phenoxyphenyl)-1H-pyrazolo[3,4-d]-pyrimidin-1-yl)piperidine-1-carbonyl)-4,4-dimethylpent-2-enenitrile instead of the usual treatment for pemphigus of high dose corticosteroids (typically 1-2 mg/kg).
The dog responded clinically to the drug as a monotherapy within three days, with improved eating and ambulation noted by the owner.

[1] = cited from earlier work
[2] = ANCA-associated vasculitis, cited from earlier work
[3] = cited from earlier work; for onset of effect / clinical response / time of maximal effect: pemphigus vulgaris

CC(C)(C)/C=C(\C#N)C(=O)N1CCC[C@@H](n2nc(-c3ccc(Oc4ccccc4)cc3F)c3c(N)ncnc32)C1 [(R,E)-2-(3-(4-amino-3-(2-fluoro-4-phenoxyphenyl)-1H-pyrazolo[3,4-d]-pyrimidin-1-yl)piperidine-1-carbonyl)-4,4-dimethylpent-2-enenitrile]
receptor occupancy at 500 mg (BTK): ~70% | manifestation of clinical response compared with systemic corticosteroid therapy (pemphigus folliaceus; dog PF): as rapid and comparable to that observed with systemic corticosteroid therapy | corticosteroid-like adverse effects (polyuria, polydipsia, polyphagia or weight gain) (pemphigus folliaceus; dog PF, oral 500 mg daily): none and No well-known corticosteroid-like adverse effects | skin lesions by four weeks (pemphigus folliaceus; dog PF, oral 500 mg daily, four weeks): completely healed | time to clinical response (improved eating and ambulation) (pemphigus folliaceus; dog PF, oral 500 mg daily, monotherapy): three | clinical status at one week follow up visit (pemphigus folliaceus; dog PF, oral 500 mg daily, one week): improved general health and commencement of pemphigus lesion healing | clinical status after two weeks of treatment (pemphigus folliaceus; dog PF, oral 500 mg daily, two weeks): general health of the dog was excellent and skin lesions continued to improve | overall efficacy and safety in treatment of PF (pemphigus folliaceus): effective and safe | overall efficacy and safety in treatment of PF (pemphigus folliaceus; listed as (R, E)-2-(3-(4-amino-3-(2-fluoro-4-phenoxyphenyl)-1H-pyrazolo[3,4-d]-pyrimidin-1))): rapidly control dog PF

Belimumab: an anti-Blys antibody
patients able to reduce corticosteroid use to <7.5 mg of prednisone ([1]; chronic SLE, week 40-52): ≤ 21% of patients (Benlysta US Product | effect on improvement of chronic SLE [1]: modest and delayed effect on improvement

Rituximab: anti-CD20 antibody rituximab, approved for treatment of B cell malignancies
cases achieving remission ([2]; despite concomitant use of corticosteroids for 5 months): in only 64% of cases despite concomitant use | onset of effect [2]: Rituximab has delayed effect in ANCA- | side effects in treated patients ([3]; patients treated with rituximab): serious side effects such as pneumonia | onset of effect / clinical response [3]: Rituximab has delayed effect in pemphigus | time of maximal effect [3]: vulgaris with maximal effect at 8-12 weeks | onset of effect / clinical response ([3]; listed as rituximab): significant delay in clinical response | time of maximal effect ([3]; listed as rituximab): 8-12 weeks
